Assay results: patent US5132111A (priority 1990, dated 1992)
Non-standard residues stand in square brackets, D forms with d. Residues, ends and D or L forms follow the SMILES beside them. hArg = N=C(N)NCCCC[C@H](N)C(=O)O; Nle = CCCC[C@H](N)C(=O)O

system: cultured rat pituitary cells; assay type: cell-based

| Compound | secretion of ACTH | secretion of β-endorphin (β-END-LI) |
| --- | --- | --- |
| CCCC[C@H](NC(=O)[C@H](CCC(=O)O)NC(=O)[C@H](CC(C)C)NC(=O)[C@H](CCCC)NC(=O)[C@H](CCC(=O)O)NC(=O)[C@H](CCCNC(=N)N)NC(=O)[C@H](CC(C)C)NC(=O)[C@H](CC(C)C)NC(=O)[C@H](Cc1c[nH]cn1)NC(=O)[C@H](Cc1ccccc1)NC(=O)[C@@H](NC(=O)[C@H](CC(C)C)NC(=O)[C@H](CC(=O)O)NC(=O)[C@H](CC(C)C)NC(=O)[C@H](CO)NC(=O)[C@@H](NC(=O)[C@@H]1CCCN1C(=O)[C@H]1CCCN1)[C@@H](C)CC)[C@@H](C)O)C(=O)N[C@@H](C)C(=O)N[C@@H](CCCNC(=N)N)C(=O)N[C@@H](C)C(=O)N[C@@H](CCC(=O)O)C(=O)N[C@@H](CCC(N)=O)C(=O)N[C@@H](CCC(=O)O)C(=O)N[C@@H](C)C(=O)N[C@@H](CCC(=O)O)C(=O)N[C@@H](CCC(N)=O)C(=O)N[C@@H](C)C(=O)N[C@@H](C)C(=O)N[C@@H](CC(C)C)C(=O)N[C@@H](CC(N)=O)C(=O)N[C@@H](CCCNC(=N)N)C(=O)N[C@@H](CC(C)C)C(=O)N[C@@H](CC(C)C)C(=O)N[C@@H](CC(C)C)C(=O)N[C@@H](CCC(=O)O)C(=O)N[C@@H](CCC(=O)O)C(=O)N[C@@H](C)C(N)=O [[D-Pro^4, Nle^18,21]-AAHC(4-41)] (H-[dP]PISLDLTFHLLRE[Nle]LE[Nle]ARAEQEAEQAALNRLLLEEA-NH2) | stimulates | stimulates |
| CCCC[C@H](NC(=O)[C@H](CCC(=O)O)NC(=O)[C@H](CC(C)C)NC(=O)[C@H](CCCC)NC(=O)[C@H](CCC(=O)O)NC(=O)[C@H](CCCNC(=N)N)NC(=O)[C@H](CC(C)C)NC(=O)[C@H](CC(C)C)NC(=O)[C@H](Cc1c[nH]cn1)NC(=O)[C@H](Cc1ccccc1)NC(=O)[C@@H](NC(=O)[C@H](CC(C)C)NC(=O)[C@H](CC(=O)O)NC(=O)[C@H](CC(C)C)NC(=O)[C@H](CO)NC(=O)[C@@H](NC(=O)[C@@H]1CCCN1C(=O)[C@H]1CCCN1C(=O)[C@H](N)Cc1ccc(O)cc1)[C@@H](C)CC)[C@@H](C)O)C(=O)N[C@@H](C)C(=O)N[C@@H](CCCNC(=N)N)C(=O)N[C@@H](C)C(=O)N[C@@H](CCC(=O)O)C(=O)N[C@@H](CCC(N)=O)C(=O)N[C@@H](CCC(=O)O)C(=O)N[C@@H](C)C(=O)N[C@@H](CCC(=O)O)C(=O)N[C@@H](CCC(N)=O)C(=O)N[C@@H](C)C(=O)N[C@@H](C)C(=O)N[C@@H](CC(C)C)C(=O)N[C@@H](CC(N)=O)C(=O)N[C@@H](CCCNC(=N)N)C(=O)N[C@@H](CC(C)C)C(=O)N[C@@H](CC(C)C)C(=O)N[C@@H](CC(C)C)C(=O)N[C@@H](CCC(=O)O)C(=O)N[C@@H](CCC(=O)O)C(=O)N[C@@H](C)C(N)=O [[D-Tyr^3, D-Pro^4, Nle^18,21]-AHC(3-41)] (H-[dY][dP]PISLDLTFHLLRE[Nle]LE[Nle]ARAEQEAEQAALNRLLLEEA-NH2) | stimulates | stimulates |
| CCCC[C@H](NC(=O)[C@H](CCC(=O)O)NC(=O)[C@H](CC(C)C)NC(=O)[C@H](CCCC)NC(=O)[C@H](CCC(=O)O)NC(=O)[C@H](CCCNC(=N)N)NC(=O)[C@H](CC(C)C)NC(=O)[C@H](CC(C)C)NC(=O)[C@H](Cc1c[nH]cn1)NC(=O)[C@H](Cc1ccccc1)NC(=O)[C@@H](NC(=O)[C@H](CC(C)C)NC(=O)[C@H](CC(=O)O)NC(=O)[C@H](CC(C)C)NC(=O)[C@H](CO)NC(=O)[C@@H](NC(=O)[C@@H]1CCCN1C(=O)[C@@H]1CCCN1C(=O)[C@H](N)Cc1ccc(O)cc1)[C@@H](C)CC)[C@@H](C)O)C(=O)N[C@@H](C)C(=O)N[C@@H](CCCNC(=N)N)C(=O)N[C@@H](C)C(=O)N[C@@H](CCC(=O)O)C(=O)N[C@@H](CCC(N)=O)C(=O)N[C@@H](CCC(=O)O)C(=O)N[C@@H](C)C(=O)N[C@@H](CCC(=O)O)C(=O)N[C@@H](CCC(N)=O)C(=O)N[C@@H](C)C(=O)N[C@@H](C)C(=O)N[C@@H](CC(C)C)C(=O)N[C@@H](CC(N)=O)C(=O)N[C@@H](CCCNC(=N)N)C(=O)N[C@@H](CC(C)C)C(=O)N[C@@H](CC(C)C)C(=O)N[C@@H](CC(C)C)C(=O)N[C@@H](CCC(=O)O)C(=O)N[C@@H](CCC(=O)O)C(=O)N[C@@H](C)C(N)=O [[D-Tyr^3, Nle^18,21]-AAHC(3-41)] (H-[dY]PPISLDLTFHLLRE[Nle]LE[Nle]ARAEQEAEQAALNRLLLEEA-NH2) | stimulates | stimulates |
| CC[C@H](C)[C@H](NC(=O)[C@@H]1CCCN1C(=O)[C@@H]1CCCN1)C(=O)N[C@@H](CO)C(=O)N[C@@H](CC(C)C)C(=O)N[C@@H](CC(=O)O)C(=O)N[C@@H](CC(C)C)C(=O)N[C@H](C(=O)N[C@@H](CC(C)C)C(=O)N[C@@H](Cc1c[nH]cn1)C(=O)N[C@@H](CC(C)C)C(=O)N[C@@H](CC(C)C)C(=O)N[C@@H](CCCNC(=N)N)C(=O)N[C@@H](CCC(=O)O)C(=O)N[C@@H](CCSC)C(=O)N[C@@H](CC(C)C)C(=O)N[C@@H](CCC(=O)O)C(=O)N[C@@H](CCSC)C(=O)N[C@@H](CCC(=O)O)C(=O)N[C@@H](CCCCNC(=N)N)C(=O)N[C@@H](C)C(=O)N[C@@H](CCC(=O)O)C(=O)N[C@@H](CCC(N)=O)C(=O)N[C@@H](CCC(=O)O)C(=O)N[C@@H](C)C(=O)N[C@@H](CCC(=O)O)C(=O)N[C@@H](CCC(N)=O)C(=O)N[C@@H](C)C(=O)N[C@@H](C)C(=O)N[C@@H](CC(C)C)C(=O)N[C@@H](CC(N)=O)C(=O)N[C@@H](CCCNC(=N)N)C(=O)N[C@@H](CCCCNC(=N)N)C(=O)N[C@@H](CC(C)C)C(=O)N[C@@H](CC(C)C)C(=O)N[C@@H](CCC(=O)O)C(=O)N[C@@H](CCC(=O)O)C(=O)N[C@@H](C)C(N)=O)[C@@H](C)O [[Glu^22, Leu^12, Har^23,36]-AHC(4-41)] (H-PPISLDLTLHLLREMLEME[hArg]AEQEAEQAALNR[hArg]LLEEA-NH2) | stimulates | stimulates |
| CCCC[C@H](NC(=O)[C@H](CCC(=O)O)NC(=O)[C@H](CC(C)C)NC(=O)[C@H](CCCC)NC(=O)[C@H](CCC(=O)O)NC(=O)[C@H](CCCNC(=N)N)NC(=O)[C@H](CC(C)C)NC(=O)[C@H](CC(C)C)NC(=O)[C@H](Cc1c[nH]cn1)NC(=O)[C@H](Cc1ccccc1)NC(=O)[C@@H](NC(=O)[C@H](CC(C)C)NC(=O)[C@H](CC(=O)O)NC(=O)[C@H](CC(C)C)NC(=O)[C@H](CO)NC(=O)[C@@H](N)[C@@H](C)CC)[C@@H](C)O)C(=O)N[C@@H](C)C(=O)N[C@@H](CCCNC(=N)N)C(=O)N[C@@H](C)C(=O)N[C@@H](CCC(=O)O)C(=O)N[C@@H](CCC(N)=O)C(=O)N[C@@H](CCC(=O)O)C(=O)N[C@@H](C)C(=O)N[C@@H](CCC(=O)O)C(=O)N[C@@H](CCC(N)=O)C(=O)N[C@@H](C)C(=O)N[C@@H](C)C(=O)N[C@@H](CC(C)C)C(=O)N[C@@H](CC(N)=O)C(=O)N[C@@H](CCCNC(=N)N)C(=O)N[C@@H](CCCNC(=N)N)C(=O)N[C@@H](CC(C)C)C(=O)N[C@@H](CC(C)C)C(=O)N[C@@H](CCC(=O)O)C(=O)N[C@@H](CCC(=O)O)C(=O)N[C@@H](C)C(N)=O [[Nle^18,21, Arg^36]-AAHC(6-41)] (H-ISLDLTFHLLRE[Nle]LE[Nle]ARAEQEAEQAALNRRLLEEA-NH2) | stimulates | stimulates |
| CCCC[C@H](NC(=O)[C@H](CCC(=O)O)NC(=O)[C@H](CC(C)C)NC(=O)[C@H](CCCC)NC(=O)[C@H](CCC(=O)O)NC(=O)[C@H](CCCNC(=N)N)NC(=O)[C@H](CC(C)C)NC(=O)[C@H](CC(C)C)NC(=O)[C@H](Cc1c[nH]cn1)NC(=O)[C@H](Cc1ccccc1)NC(=O)[C@@H](NC(=O)[C@H](CC(C)C)NC(=O)[C@H](CC(=O)O)NC(=O)[C@H](CC(C)C)NC(=O)[C@H](CO)NC(=O)[C@@H](NC(=O)[C@@H]1CCCN1)[C@@H](C)CC)[C@@H](C)O)C(=O)N[C@@H](C)C(=O)N[C@@H](CCCNC(=N)N)C(=O)N[C@@H](C)C(=O)N[C@@H](CCC(=O)O)C(=O)N[C@@H](CCC(N)=O)C(=O)N[C@@H](CCC(=O)O)C(=O)N[C@@H](C)C(=O)N[C@@H](CCC(=O)O)C(=O)N[C@@H](CCC(N)=O)C(=O)N[C@@H](C)C(=O)N[C@@H](C)C(=O)N[C@@H](CC(C)C)C(=O)N[C@@H](CC(N)=O)C(=O)N[C@@H](CCCNC(=N)N)C(=O)N[C@@H](CC(C)C)C(=O)N[C@@H](CC(C)C)C(=O)N[C@@H](CC(C)C)C(=O)N[C@@H](CCC(=O)O)C(=O)N[C@@H](CCC(=O)O)C(=O)N[C@@H](C)C(N)=O [[Nle^18,21, ]-AAHC(5-41)] (H-PISLDLTFHLLRE[Nle]LE[Nle]ARAEQEAEQAALNRLLLEEA-NH2) | stimulates | stimulates |
| H-GEEPPISLDLTFHLLREVLEMARAEQLAQQAHLNRRLMEEI-NH2 [[Gly^1, Leu^33, Glu^40]-rCRF] | stimulates | stimulates |
| H-PPISLDLTFHLLREVLEMARAEQLAEQAHSNRRYMEEI-NH2 | stimulates | stimulates |
| H-PPISLDLTFHLLREVLEMARAEQLAQQAHLNRRLMEEI-NH2 | stimulates | stimulates |
| H-SEEPPISLDLTFHLLREVLEMTRAEQLAEQAHSNRRLMEEI-NH2 [[Thr^22, Glu^29,40, Arg^36]-rCRF] | stimulates | stimulates |
| H-SEEPPISLDLTFHLLREVLE[Nle]ARAEQLAEQAHSNRRL[Nle]EII-NH2 [[Nle^21,38, Glu^29, Arg^36]-rCRF] | stimulates | stimulates |
| H-SEEPPISLDLTFHLLREVLE[Nle]ARAEQLAQQAYLNRRL[Nle]EEI-NH2 | stimulates | stimulates |
| H-SEEPPISLDLTFHLLREVLE[Nle]A[hArg]AEQLAQQAHLNRRLMEE[Nle]-NH2 | stimulates | stimulates |
| H-SEEPPISLDLTLELLREMLEME[hArg]AEREAEQAALNRLLLEEA-NH2 | stimulates | stimulates |
| H-SEEPPISLELTFHLLREVLE[Nle]ARAEQLAEQAHLNRRL[Nle]EII-NH2 | stimulates | stimulates |
| H-SEEPPIS[Nle]DLSFHLLREVLEMARAEQLAQQAHLNRRLMEEI-NH2 | stimulates | stimulates |
